Measured values taken from ChEMBL document CHEMBL1158854, “Antimycobacterial polyynes of Devil's Club (Oplopanax horridus), a North American native medicinal plant” (1997).
In brackets after ≈: the same amount, converted by molar mass. Activity calls are given as the source filed them. The calls are words filed in the database; no cut-off is given here.

Assays:
Pseudomonas aeruginosa [1] = assay: Antimicrobial activity against Pseudomonas aeruginosa Z61 by twofold serial microbroth dilution method; format: functional
Bacillus subtilis = assay: Antimicrobial activity against Bacillus subtilis UBC221 by twofold serial microbroth dilution method; format: functional
Mycobacterium avium [2] = assay: Antimycobacterial activity against isoniazid-resistant Mycobacterium avium at 20 ug/disk by disk diffusion assay; format: functional, organism-based
Staphylococcus aureus [3] = assay: Antimicrobial activity against methicillin-resistant Staphylococcus aureus SAP00017 by twofold serial microbroth dilution method; format: functional
Escherichia coli [4] = assay: Antimicrobial activity against Escherichia coli UB1005 by twofold serial microbroth dilution method; format: functional
Staphylococcus aureus [5] = assay: Antimicrobial activity against methicillin-susceptible Staphylococcus aureus RN4220 by twofold serial microbroth dilution method; format: functional
Candida albicans = assay: Antimicrobial activity against Candida albicans UBC54 by twofold serial microbroth dilution method; format: functional
[6] = system: Mycobacterium tuberculosis; assay: Antimycobacterial activity against Mycobacterium tuberculosis at 100 ug/disk by disk diffusion assay; format: functional, organism-based
Mycobacterium avium [7] = assay: Antimycobacterial activity against isoniazid-resistant Mycobacterium avium at 100 ug/disk by disk diffusion assay; format: functional, organism-based
Pseudomonas aeruginosa [8] = assay: Antimicrobial activity against Pseudomonas aeruginosa K799 by twofold serial microbroth dilution method; format: functional
Escherichia coli [9] = assay: Antimicrobial activity against Escherichia coli DC2 by twofold serial microbroth dilution method; format: functional
Mycobacterium avium [10] = assay: Antimycobacterial activity against isoniazid-resistant Mycobacterium avium at 10 ug/disk by disk diffusion assay; format: functional, organism-based
[11] = system: Mycobacterium tuberculosis; assay: Antimycobacterial activity against Mycobacterium tuberculosis at 20 ug/disk by disk diffusion assay; format: functional, organism-based
[12] = system: Mycobacterium tuberculosis; assay: Antimycobacterial activity against Mycobacterium tuberculosis at 10 ug/disk by disk diffusion assay; format: functional, organism-based

Q: What does the source list for `C=C[C@H](O)C#CC#C[C@@H](O)/C=C\CCCCCCCCOC(C)=O`?
A: MIC (Pseudomonas aeruginosa [1]): > 50 µg/mL; MIC (Bacillus subtilis): 25 µg/mL (≈ 75.2 µM); Activity (Mycobacterium avium [2]): Active; MIC (Staphylococcus aureus [3]): > 50 µg/mL; MIC (Escherichia coli [4]): > 50 µg/mL; MIC (Staphylococcus aureus [5]): 50 µg/mL (≈ 150 µM); MIC (Candida albicans): > 50 µg/mL; Activity [6]: Active; Activity (Mycobacterium avium [7]): Active; MIC (Pseudomonas aeruginosa [8]): > 50 µg/mL; MIC (Escherichia coli [9]): > 50 µg/mL

Q: For `CCCCCCC/C=C\[C@H](O)C#CC#C[C@@H](O)CC` [OPLOPANDIOL], which MIC (Pseudomonas aeruginosa [1]) is on record?
A: The MIC was greater than 50 µg/mL.

Q: What about the MIC (Bacillus subtilis) of the same compound?
A: Its MIC is 6.25 µg/mL (≈ 23.8 µM).

Q: What about the MIC (Staphylococcus aureus [3]) of the same compound?
A: Its MIC is 6.25 µg/mL (≈ 23.8 µM).

Q: What about the MIC (Escherichia coli [4]) of the same compound?
A: Its MIC is greater than 50 µg/mL.

Q: What about the MIC (Staphylococcus aureus [5]) of the same compound?
A: Its MIC is 6.25 µg/mL (≈ 23.8 µM).

Q: And the MIC (Candida albicans)?
A: The MIC was 12.5 µg/mL (≈ 47.6 µM).

Q: What about the Activity [6] of the same compound?
A: The Activity was “Active”.

Q: What about the Activity (Mycobacterium avium [7]) of the same compound?
A: Its Activity is “Active”.

Q: What about the MIC (Pseudomonas aeruginosa [8]) of the same compound?
A: Its MIC is greater than 50 µg/mL.

Q: What about the MIC (Escherichia coli [9]) of the same compound?
A: The MIC was 6.25 µg/mL (≈ 23.8 µM).

Q: `NNC(=O)c1ccncc1` was tested. Which Activity (Mycobacterium avium [2]) did it give?
A: Its Activity is “inactive”.

Q: And the Activity (Mycobacterium avium [10])?
A: Its Activity is “inactive”.

Q: And the Activity [6]?
A: Its Activity is “Active”.

Q: What about the Activity (Mycobacterium avium [7]) of the same compound?
A: The Activity was “inactive”.

Q: And the Activity [11]?
A: The Activity was “Active”.

Q: What about the Activity [12] of the same compound?
A: The Activity was “Active”.

Q: Which results are given for `C=C[C@@H](O)C#CC#C[C@@H](O)/C=C\CCCCCCC` [FALCARINDIOL]?
A: MIC (Pseudomonas aeruginosa [1]): 50 µg/mL (≈ 192 µM); MIC (Bacillus subtilis): 6.25 µg/mL (≈ 24 µM); Activity (Mycobacterium avium [2]): Active; MIC (Staphylococcus aureus [3]): 25 µg/mL (≈ 96 µM); MIC (Escherichia coli [4]): > 50 µg/mL; MIC (Staphylococcus aureus [5]): 25 µg/mL (≈ 96 µM); MIC (Candida albicans): 25 µg/mL (≈ 96 µM); Activity [6]: Active; Activity (Mycobacterium avium [7]): Active; MIC (Pseudomonas aeruginosa [8]): > 50 µg/mL; MIC (Escherichia coli [9]): 25 µg/mL (≈ 96 µM)

Q: With `C=C[C@H](O)C#CC#CC/C=C\CCCCCCC` [FALCARINOL] as the compound, how does the MIC (Pseudomonas aeruginosa [1]) read?
A: The MIC was 6.25 µg/mL (≈ 25.6 µM).

Q: What about the MIC (Bacillus subtilis) of the same compound?
A: The MIC was 3.1 µg/mL (≈ 12.7 µM).

Q: And the Activity (Mycobacterium avium [2])?
A: The Activity was “Active”.

Q: And the MIC (Staphylococcus aureus [3])?
A: The MIC was 3.1 µg/mL (≈ 12.7 µM).

Q: What about the MIC (Escherichia coli [4]) of the same compound?
A: The MIC was greater than 50 µg/mL.

Q: What about the MIC (Staphylococcus aureus [5]) of the same compound?
A: Its MIC is 3.1 µg/mL (≈ 12.7 µM).

Q: What about the MIC (Candida albicans) of the same compound?
A: Its MIC is 6.25 µg/mL (≈ 25.6 µM).

Q: What about the Activity [6] of the same compound?
A: The Activity was “Active”.

Q: What about the Activity (Mycobacterium avium [7]) of the same compound?
A: Its Activity is “Active”.

Q: And the Activity [11]?
A: The Activity was “Active”.

Q: And the MIC (Pseudomonas aeruginosa [8])?
A: The MIC was greater than 50 µg/mL.

Q: And the MIC (Escherichia coli [9])?
A: Its MIC is 6.25 µg/mL (≈ 25.6 µM).

Q: What does the source list for GENTAMICIN?
A: MIC (Pseudomonas aeruginosa [1]): 0.6 µg/mL; MIC (Bacillus subtilis): 1.25 µg/mL; MIC (Staphylococcus aureus [3]): > 10 µg/mL; MIC (Escherichia coli [4]): 1.25 µg/mL; MIC (Staphylococcus aureus [5]): 0.6 µg/mL; MIC (Pseudomonas aeruginosa [8]): 1.25 µg/mL; MIC (Escherichia coli [9]): 0.6 µg/mL

Q: What does the source list for `COc1cccc(OC)c1C(=O)N[C@@H]1C(=O)N2[C@@H]1SC(C)(C)[C@@H]2C(=O)O` [METHICILLIN]?
A: MIC (Pseudomonas aeruginosa [1]): 3.1 µg/mL (≈ 8.15 µM); MIC (Bacillus subtilis): 100 µg/mL (≈ 263 µM); MIC (Escherichia coli [4]): > 100 µg/mL; MIC (Staphylococcus aureus [5]): 1.6 µg/mL (≈ 4.21 µM); MIC (Candida albicans): > 100 µg/mL; MIC (Pseudomonas aeruginosa [8]): > 100 µg/mL; MIC (Escherichia coli [9]): 1.6 µg/mL (≈ 4.21 µM)

Q: With `CC[C@H](O)C#CC#C[C@@H](O)/C=C\CCCCCCCCOC(C)=O` [OPLOPANDIOL ACETATE] as the compound, how does the MIC (Pseudomonas aeruginosa [1]) read?
A: Its MIC is greater than 50 µg/mL.

Q: What about the MIC (Bacillus subtilis) of the same compound?
A: The MIC was 25 µg/mL.

Q: What about the Activity (Mycobacterium avium [2]) of the same compound?
A: The Activity was “Active”.

Q: And the MIC (Staphylococcus aureus [3])?
A: Its MIC is greater than 50 µg/mL.

Q: What about the MIC (Escherichia coli [4]) of the same compound?
A: The MIC was greater than 50 µg/mL.

Q: What about the MIC (Staphylococcus aureus [5]) of the same compound?
A: The MIC was 50 µg/mL.

Q: And the MIC (Candida albicans)?
A: The MIC was greater than 50 µg/mL.

Q: What about the Activity [6] of the same compound?
A: Its Activity is “Active”.

Q: What about the Activity (Mycobacterium avium [7]) of the same compound?
A: The Activity was “Active”.

Q: And the Activity [11]?
A: Its Activity is “Active”.

Q: And the MIC (Pseudomonas aeruginosa [8])?
A: The MIC was greater than 50 µg/mL.

Q: What about the MIC (Escherichia coli [9]) of the same compound?
A: The MIC was greater than 50 µg/mL.
